Here are results for one compound from patent publication US9676758B2, “1-heteroaryl-indoline-4-carboxamides as modulators of GPR52 useful for the treatment or prevention of disorders related thereto” (Arena Pharmaceuticals, Inc., priority 2015, dated 2017).

For one data set, the system named is male Sprague-Dawley rats. Kind of data set: Catalepsy (vertical grid) in rats. In kind it is in vivo, rat. As to conditions: Compound 13 5-100 mg/kg P.O., haloperidol 0.1, 0.3, or 1 mg/kg S.C., 45 minutes post-dose. On the procedure:
Catalepsy is used as a model for detecting extrapyramidal side effects of antipsychotic drugs. […] The rats were removed from home cages 45 minutes later and placed on a vertical stainless steel grid, and the latency to move both forepaws from their starting position was measured for a maximum of 30 seconds. The test was repeated three times consecutively.
Catalepsy is expressed as the average latency to move both forepaws over the three trials. Latency increased in the rats administered haloperidol (see FIG. 27B), but was unchanged in rats administered Compound 13 (see FIG. 27A).

A further data set concerns male Sprague Dawley rats. The data set is described as follows: Plasma prolactin levels in rats (ELISA). Type of data set: in vivo, rat. As to conditions: basal prolactin release, haloperidol 0.1 and 1 mg/kg P.O., Compound 13 1, 10, and 100 mg/kg P.O., FIG. 28A. On the procedure: Another unwanted side effect of certain antipsychotics is hyperprolactinemia. To examine prolactin levels following the administration of a GPR52 agonist, male Sprague Dawley rats (Harlan Laboratories, San Diego, Calif.) were single-housed, handled, and moved to a private housing room one week prior to testing. Rats were individually handled and sham dosed P.O. for four days prior to testing. For an assessment of haloperidol (0.1 and 1 mg/kg P.O.) and Compound 13 (1, 10, and 100 mg/kg P.O.) on basal prolactin release, rats were dosed with acidic 20% HP-β-cyclodextrin (HBCD) or compound at 3 mL/kg P.O. in their housing room 60 minutes prior to harvest. For interaction studies, rats were dosed with 20% HBCD or Compound 13 (10 mg/kg P.O.) 90 minutes prior to harvest, and additionally with 20% HBCD vehicle or haloperidol (0.3 and 1 mg/kg P.O.) 60 minutes prior to harvest. Rats were individually taken to the harvest room, and trunk blood was collected into 4 mL EDTA tubes following live decapitation. Samples were stored on wet ice until collection was complete, then spun in a cooling centrifuge at 2400 rpm for 20 minutes. Plasma was collected and frozen for subsequent analysis using a Rat Prolactin ELISA kit (ALPCO Diagnostics: Cat#55-PRLRT-E01).
Briefly, frozen plasma was thawed on ice and mixed prior to initiation of the ELISA. Twenty-five microliters of sample plasma along with serially diluted standards (lyophilized purified rat prolactin diluted with rat prolactin calibrator/sample diluent), and calibrator/sample diluent used as a blank were placed in a 96-well plate provided with the ELISA kit. Samples, blank, and standards were measured in duplicate. […] Fifty microliters of stop solution (2M hydrochloric acid) was added to the wells prior to reading on a 96-well plate reader (SpectraMax® 340PC; Molecular Devices, Sunnyvale, Calif.) at […]. The quantity of prolactin in each sample was calculated using a standard curve.
A general note: An ELISA detects its analyte on a solid surface through an enzyme-linked reagent.

For the compound `O=C(CCCN1CCC(O)(c2ccc(Cl)cc2)CC1)c1ccc(F)cc1` [haloperidol, reference compound], the “catalepsy: average latency to move both forepaws” value with male Sprague-Dawley rats is “increased”. For the same compound, in the data set with male Sprague Dawley rats, the prolactin levels entry is recorded as “increased”.
